In one test the target is T1, 17β-HSD1 (Homo sapiens, UniProt P14061).
T1 construct: was measured in intact cell monolayers of T47D and MDA-MB-231 breast cancer cells respectively; endogenous in cells; host or cells: T-47D human breast cancer cells
T1 sequence (P14061 1-328): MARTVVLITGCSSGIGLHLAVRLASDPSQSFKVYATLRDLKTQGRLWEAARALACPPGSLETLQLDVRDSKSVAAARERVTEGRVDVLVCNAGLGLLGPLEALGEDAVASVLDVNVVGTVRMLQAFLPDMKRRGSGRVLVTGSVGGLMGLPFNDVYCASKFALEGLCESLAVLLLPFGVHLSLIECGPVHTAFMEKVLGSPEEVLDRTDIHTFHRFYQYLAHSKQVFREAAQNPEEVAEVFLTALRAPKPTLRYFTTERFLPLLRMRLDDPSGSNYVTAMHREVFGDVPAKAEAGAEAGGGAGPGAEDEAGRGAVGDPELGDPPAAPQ
The test can be described thus: 17β-HSD Type I activity in T-47D cells (E1→E2). The following applies: T-47D cells, E1→E2; for IC50: read-out: IC50 (17β-HSD1); for inhibition at 10 µM: T47D. It is filed as cell-based.

The target in another test is T2, 17β-HSD2 (Homo sapiens, UniProt P37059).
T2 construct: was measured in intact cell monolayers of T47D and MDA-MB-231 breast cancer cells respectively; endogenous in cells; host or cells: MDA-MB-231 human breast cancer cells
T2 sequence (P37059 1-387): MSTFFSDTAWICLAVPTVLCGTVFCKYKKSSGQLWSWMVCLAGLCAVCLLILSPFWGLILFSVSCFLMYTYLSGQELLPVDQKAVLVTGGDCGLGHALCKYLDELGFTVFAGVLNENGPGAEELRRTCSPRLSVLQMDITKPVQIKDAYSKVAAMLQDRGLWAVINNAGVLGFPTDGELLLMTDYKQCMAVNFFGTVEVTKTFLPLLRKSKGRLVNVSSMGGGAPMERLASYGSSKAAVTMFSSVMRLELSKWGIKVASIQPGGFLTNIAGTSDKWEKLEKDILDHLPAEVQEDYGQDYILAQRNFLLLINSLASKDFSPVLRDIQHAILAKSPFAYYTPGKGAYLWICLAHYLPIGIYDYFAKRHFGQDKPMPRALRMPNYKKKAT
Kind of test: 17β-HSD Type II activity in MDA-MB-231 cells (E2→E1). Format: cell-based.

Setting [1] is: 10 μM, MDA-MB-231 cells, E2→E1, read-out: % inhibition of 17β-HSD2 @ 10 μM.
Setting [2] is: 10 μM, read-out: % inhibition of 17β-HSD1 @ 10 μM.

Where two headings read alike, the source gives them in different places.

The record followed here is patent publication US8003783B2, “17B-hydroxysteroid dehydrogenase inhibitors” (Sterix Limited, priority 2004, dated 2011).

As to `CCc1cc2c(cc1OS(N)(=O)=O)CCC1C2CC[C@]2(C)C(=O)C(CC(=O)NCc3cccnc3)CC12` (stereo partly drawn) [compound 1039], the IC50 at 17β-HSD1 amounted to 5.1 µM. Moreover, on 17β-HSD2 (setting [1]), the inhibition at 10 µM was -4%.
Consider `CC(C)NC(=O)CC1CC2C3CCc4cc(O)ccc4C3CC[C@]2(C)C1=O` (stereo partly drawn) [compound 743], for which the inhibition at 10 µM at 17β-HSD1 (setting [2]) was 75%; on 17β-HSD2 (setting [1]), 6%.
With `C[C@]12CCC3c4ccc(O)cc4CCC3C1C/C(=C\c1cccs1)C2=O` (stereo partly drawn) [compound 475], the inhibition at 10 µM at 17β-HSD1 (setting [2]) stood at 67%; on 17β-HSD2 (setting [1]), 14%.
`C[C@]12CCC3c4ccc(O)cc4CCC3C1C/C(=N/O)C2=O` (stereo partly drawn) [compound 327]: at 17β-HSD1 (10 μM), the “% inhibition of 17β-HSD1 @ 10 μM” value is on record as 94%. The values for the inhibition at 10 µM on 17β-HSD1 (setting [2]) and on 17β-HSD2 (setting [1]) were 96% and 5%, respectively. Besides, the IC50 at 17β-HSD1 was 1.1 µM.
`Cn1c2c(c(=O)n1C)CC1C3CCc4cc(O)ccc4C3CC[C@]21C` (stereo partly drawn) [compound 942]: the inhibition at 10 µM amounted to 32% at 17β-HSD1 (setting [2]) and 15% at 17β-HSD2 (setting [1]).
With `C[C@]12CCC3c4ccc(O)cc4CCC3C1CC(C(=O)NCc1ccncc1)[C@@H]2O` (stereo partly drawn) [compound 845], the inhibition at 10 µM at 17β-HSD1 (setting [2]) worked out at 87%; at 17β-HSD2 (setting [1]), 2.5%.
For `CC(C)Cn1ncc2c1[C@@]1(C)CCC3c4ccc(O)cc4CCC3C1C2` (stereo partly drawn) [compound 813], the inhibition at 10 µM at 17β-HSD1 (read-out: % inhibition of 17β-HSD1 @ 10 μM, 10 μM) amounted to 70%; at 17β-HSD2 (MDA-MB-231, read-out: % inhibition of 17β-HSD2 @ 10 μM), 44%.
As for `C[C@]12CCC3c4ccc(O)cc4CCC3C1CC(C(=O)NCC1CCCO1)[C@@H]2O` (stereo partly drawn) [compound 779], the inhibition at 10 µM at 17β-HSD1 (setting [2]) was 82%; at 17β-HSD2 (setting [1]), 11%.
On to `C[C@]12CCC3c4ccc(O)cc4CCC3C1Cc1cn(CCC#N)nc12` (stereo partly drawn) [compound 921], for which the inhibition at 10 µM at 17β-HSD1 (setting [2]) is 95%; at 17β-HSD2 (setting [1]), 44%. Moreover, at 17β-HSD1, the IC50 was 0.73 µM.
`C[C@]12CCC3c4ccc(OS(N)(=O)=O)cc4CCC3C1C/C(=C\c1ccccc1)[C@@H]2O` (stereo partly drawn) [compound 315]: the inhibition at 10 µM on 17β-HSD1 (setting [2]) stood at 4%; at 17β-HSD2 (setting [1]), 1%.
For `COc1cc(/C=C2\CC3C4CCc5cc(OS(N)(=O)=O)ccc5C4CC[C@]3(C)C2=O)cc(OC)c1OC` (stereo partly drawn) [compound 692], in that order: 4% and 17%.
In the same order, the values of `CCN(C)C(=O)C1CC2C3CCc4cc(O)ccc4C3CC[C@]2(C)[C@H]1O` (stereo partly drawn) [compound 800] are 79% and -6%.
For `CC(C)/C=C1\CC2C3CCc4cc(O)ccc4C3CC[C@]2(C)[C@H]1O` (stereo partly drawn) [compound 614], in that order: 68% and 7%.
On to `C[C@]12CCC3c4ccc(OS(N)(=O)=O)cc4CCC3C1CC(C#N)C2=O` (stereo partly drawn) [compound 209], for which the “% inhibition of 17β-HSD1 @ 10 μM” value on 17β-HSD1 (10 μM) stood at 73%. For the same molecule, the values for the inhibition at 10 µM at 17β-HSD1 (setting [2]) and on 17β-HSD2 (setting [1]) were 71% and 18%, respectively. In addition, the IC50 at 17β-HSD1 worked out at 10 µM.
`C[C@]12CCC3c4ccc(O)cc4CCC3C1CC(C#N)C2=O` (stereo partly drawn) [compound 207]: the “% inhibition of 17β-HSD1 @ 10 μM” value on 17β-HSD1 (10 μM) came out at 71%. The inhibition at 10 µM at 17β-HSD1 (setting [2]) stood at 83%; on 17β-HSD2 (setting [1]), 17%. The IC50 on 17β-HSD1 worked out at 10 µM.
Take `C[C@H](NC(=O)CC1CC2C3CCc4cc(O)ccc4C3CC[C@]2(C)C1=O)c1ccccc1` (stereo partly drawn) [compound 690]: the inhibition at 10 µM at 17β-HSD1 (setting [2]) stood at 83%; at 17β-HSD2 (setting [1]), 10%.
Turning to `CN(C)c1ccc(CC2CC3C4CCc5cc(O)ccc5C4CC[C@]3(C)[C@H]2O)cc1` (stereo partly drawn) [compound 594, 16-(4-Dimethylamino-benzyl)-13-methyl-7,8,9,11,12,13,14,15,16,17-decahydro-6H-cyclopenta[a]phenanthrene-3,17-diol], the inhibition at 10 µM was found to be 41% on 17β-HSD1 (setting [2]) and 25% on 17β-HSD2 (setting [1]).
With `C[C@]12CCC3c4ccc(O)cc4CCC3C1C/C(=C\c1ccccn1)C2=O` (stereo partly drawn) [compound 319], the inhibition at 10 µM was 23% on 17β-HSD1 (setting [2]) and 16% at 17β-HSD2 (setting [1]).
In the same order, the values of `Cc1cnc(CNC(=O)C2CC3C4CCc5cc(O)ccc5C4CC[C@]3(C)[C@H]2O)cn1` (stereo partly drawn) [compound 803] are 85% and -18%.
